Values of other authors in paper PMC10674484, “A Spectroscopic and Molecular Dynamics Study on the Aggregation Properties of a Lipopeptide Analogue of Liraglutide, a Therapeutic Peptide against Diabetes Type 2” (Molecules, 2023).
Read-outs that look alike come from different tables or passages of the source.

Key:
[1] = From the text: (§1) From this point of view, it is interesting to compare the aggregation properties and binding affinity to serum proteins of Liraglutide, a once daily administration drug, and Semaglutide, a one weekly administration drug.
[2] = remark: listed apart in the source
From the text: Liraglutide (LG), a lipidated glucagon-like peptide 1 derivative, more than a decade ago became a once daily leading drug in the therapy of diabetes and obesity. However, despite its prominent role in the market, LG pharmacokinetics is still under scrutiny. Former studies have shown that LG complexation with human serum albumin (HSA) is one of the factors affecting LG circulation time and catabolism. Moreover, it has been shown that the relatively large size of HSA protects LG against proteolytic degradation or rapid renal filtration, resulting in a long half-life in human ...

albumin = system: albumin
From the text: as §1

| Substance | cac compared with Semaglutide [1] | half-life ([2]; humans, subcutaneous administration) | number of LP units per aggregate ([2]; pH 6.4) | number of LP units per aggregate ([2]; pH 8) | affinity for albumin compared with Liraglutide (albumin) |
| --- | --- | --- | --- | --- | --- |
| Liraglutide | lower than the latter | 11 to 15 h | twelve | eight | – |
| Semaglutide | – | – | – | – | markedly higher |
